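These data come from cells grown in 96-well plates and exposed to compound for 48 hours at five concentrations. At the GI50, growth is halved.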 Active and inactive are the calls of the source. Cut-off read from the data, not from the text of the source: active = GI50 up to about 1.1 µM and inactive = higher.
Legend:
Assay in all cases: NCI-60 cell line screen, 48 h
[1] = tested on: U-251
[2] = tested on: OVCAR-3
[3] = tested on: SK-OV-3
[4] = tested on: SF-539
[5] = tested on: HOP-92
[6] = tested on: SF-295
[7] = tested on: HT-29
[8] = tested on: NCI-H522
[9] = tested on: UACC-62
[10] = tested on: CCRF-CEM
[11] = tested on: HCT-116
[12] = tested on: ACHN
[13] = tested on: NCI-H460
[14] = tested on: M14
[15] = tested on: OVCAR-8
[16] = tested on: HOP-62
[17] = tested on: SNB-75
[18] = tested on: Hs-578T
[19] = tested on: DU-145
[20] = tested on: MDA-MB-231

SMILES	GI50 [1]	GI50 [2]	GI50 [3]	GI50 [4]	GI50 [5]	GI50 [6]	GI50 [7]	GI50 [8]	GI50 [9]	GI50 [10]	GI50 [11]	GI50 [12]	GI50 [13]	GI50 [14]	GI50 [15]	GI50 [16]	GI50 [17]	GI50 [18]	GI50 [19]	GI50 [20]
N/C(=N\O)N/N=C/c1ccc(O)c(O)c1	> 100 µM (inactive)	> 100 µM (inactive)	> 100 µM (inactive)	> 100 µM (inactive)	> 100 µM (inactive)	> 100 µM (inactive)	> 100 µM (inactive)	> 100 µM (inactive)	> 100 µM (inactive)	> 100 µM (inactive)	> 100 µM (inactive)	> 100 µM (inactive)	> 100 µM (inactive)	> 100 µM (inactive)	> 100 µM (inactive)	> 100 µM (inactive)	> 100 µM (inactive)	–	–	–
Cc1ccccc1Nc1cn(COCc2ccccc2)c(=O)[nH]c1=O	> 100 µM (inactive)	79.8 µM (inactive)	–	–	> 100 µM (inactive)	> 100 µM (inactive)	48.5 µM (inactive)	40.2 µM (inactive)	75.2 µM (inactive)	91.6 µM (inactive)	49.7 µM (inactive)	> 100 µM (inactive)	69.5 µM (inactive)	> 100 µM (inactive)	–	> 100 µM (inactive)	–	54.3 µM (inactive)	80.4 µM (inactive)	–
CCOC(=O)C1=C(C)N(c2ccc(C)cc2)C2(O)C=CC(O)=C3C(=O)c4ccccc4C(=O)C312 (centres undefined)	39.7 µM (inactive)	34.9 µM (inactive)	35.7 µM (inactive)	22.2 µM (inactive)	19.3 µM (inactive)	68.1 µM (inactive)	25 µM (inactive)	16.1 µM (inactive)	33.1 µM (inactive)	5.05 µM (inactive)	48.5 µM (inactive)	22.7 µM (inactive)	34.2 µM (inactive)	36.6 µM (inactive)	21.6 µM (inactive)	> 100 µM (inactive)	24.1 µM (inactive)	–	23.6 µM (inactive)	34.4 µM (inactive)
O=c1[nH]c2ccccc2cc1C(Cl)=C(Cl)Cl	> 100 µM (inactive)	> 100 µM (inactive)	> 100 µM (inactive)	> 100 µM (inactive)	> 100 µM (inactive)	> 100 µM (inactive)	> 100 µM (inactive)	> 100 µM (inactive)	> 100 µM (inactive)	> 100 µM (inactive)	> 100 µM (inactive)	> 100 µM (inactive)	> 100 µM (inactive)	> 100 µM (inactive)	> 100 µM (inactive)	> 100 µM (inactive)	35.2 µM (inactive)	–	–	–
Cc1ccc(-n2cc(-c3ccc(Cl)cc3)c3c(NN)ncnc32)cc1	1.82 µM (inactive)	0.357 µM (active)	5.14 µM (inactive)	2.51 µM (inactive)	2.97 µM (inactive)	3.36 µM (inactive)	4.48 µM (inactive)	3.58 µM (inactive)	2.67 µM (inactive)	0.566 µM (active)	2.4 µM (inactive)	3.31 µM (inactive)	3.4 µM (inactive)	1.38 µM (inactive)	3.24 µM (inactive)	2.43 µM (inactive)	1.39 µM (inactive)	–	3.49 µM (inactive)	6.89 µM (inactive)
Cc1c(Cl)cccc1NC(=O)C(=O)c1c(O)c2ccc(O)cc2oc1=O	> 100 µM (inactive)	> 100 µM (inactive)	> 100 µM (inactive)	> 100 µM (inactive)	> 100 µM (inactive)	> 100 µM (inactive)	> 100 µM (inactive)	> 100 µM (inactive)	> 100 µM (inactive)	> 100 µM (inactive)	> 100 µM (inactive)	> 100 µM (inactive)	> 100 µM (inactive)	> 100 µM (inactive)	> 100 µM (inactive)	> 100 µM (inactive)	> 100 µM (inactive)	–	–	–

Reference: ChEMBL document CHEMBL1201862, “PubChem BioAssay data set” (2004)
